These results are taken from PubChem BioAssay AID1411 (The Scripps Research Institute Molecular Screening Center, 2008).

Active and inactive are the calls of the source. How the calls were made is not given here.

The assay has as its target Signal transducer and activator of transcription 1-alpha/beta (Homo sapiens) (UniProt P42224). The experiment in a line: STAT1 transcription blockade – cell-based, NIH 3T3, luciferase reporter, counter-screen for STAT3 inhibitor project, dose response (AID 1411). Particulars: NIH 3T3 fibroblasts, counterscreen.

Signal transducer and activator of transcription 1-alpha/beta (Homo sapiens), sequence (P42224 whole entry, looked up): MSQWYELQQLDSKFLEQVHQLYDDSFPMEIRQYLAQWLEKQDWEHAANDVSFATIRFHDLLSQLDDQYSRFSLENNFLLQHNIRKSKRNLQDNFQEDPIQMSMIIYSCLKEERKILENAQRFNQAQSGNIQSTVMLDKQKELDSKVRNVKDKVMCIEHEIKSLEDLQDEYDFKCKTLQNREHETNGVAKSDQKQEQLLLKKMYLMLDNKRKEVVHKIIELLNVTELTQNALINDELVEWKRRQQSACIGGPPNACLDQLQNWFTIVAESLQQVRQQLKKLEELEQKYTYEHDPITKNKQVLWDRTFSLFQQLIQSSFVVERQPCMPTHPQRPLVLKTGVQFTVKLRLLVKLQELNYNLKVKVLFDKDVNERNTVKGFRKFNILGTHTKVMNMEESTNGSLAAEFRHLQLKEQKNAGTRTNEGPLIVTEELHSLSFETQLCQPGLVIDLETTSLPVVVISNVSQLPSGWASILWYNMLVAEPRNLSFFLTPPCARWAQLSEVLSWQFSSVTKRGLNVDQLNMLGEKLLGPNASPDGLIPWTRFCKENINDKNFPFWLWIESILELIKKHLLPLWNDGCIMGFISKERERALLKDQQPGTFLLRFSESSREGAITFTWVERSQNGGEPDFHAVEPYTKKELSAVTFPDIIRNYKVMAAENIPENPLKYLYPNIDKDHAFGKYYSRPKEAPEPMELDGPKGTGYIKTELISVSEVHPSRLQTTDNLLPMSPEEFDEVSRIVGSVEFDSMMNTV

For `Cc1cc(C)n(Cc2ccc(NC(=O)c3ccc(COc4ccccc4Br)cc3)cc2)n1`, the IC50 is > 55.7 µM (inactive).

In the case of `COc1ccc(-c2nn(C)c(=O)c3ccccc23)cc1NC(=O)COc1ccc(C)cc1`, the IC50 result was “inactive”.

Consider `COc1ccc(Br)cc1/C(C)=N/NC1=NCCN1`, for which the IC50 was > 55.7 µM (inactive).

Consider `CCOC(=O)c1oc2ccc(S(=O)(=O)Nc3ccc4c(c3)n(C)c(=O)n4C)cc2c1C`, for which the IC50 result was “inactive”.

As for `COc1ccc2nc3c(cc2c1)c(NC(=O)c1cccs1)nn3CC(C)C`, the IC50 was > 55.7 µM (inactive).

`C[C@H]1CCC[C@@H](O)CCC/C=C/c2cc(O)cc(O)c2C(=O)O1`: the IC50 was > 55.7 µM (inactive).

`Cc1nc2ccccc2cc1OCc1ccccc1`: the IC50 was > 55.7 µM (inactive).

Regarding `O=C(Nc1cccc(O)c1)c1noc2c1CCc1ccccc1-2`, the IC50 entry was “inactive”.

Regarding `O=C1c2ccc(Br)cc2C(=O)N1c1ccc(Cc2ccncc2)cc1`, the IC50 is > 55.7 µM (inactive).

Regarding `Cc1ccccc1OCCCCn1cnc2ccccc21`, the IC50 is > 55.7 µM (inactive).

For `CCCOc1ccc(/C=N/NC(=S)Nc2ccccc2[N+](=O)[O-])c(O)c1`, the IC50 was > 55.7 µM (inactive).

Regarding `O=C(Nc1cccc(O)c1)C(=O)Nc1ccccn1`, the IC50 entry was “inactive”.

Regarding `COc1ccc(/C=N/NC(=S)Nc2cccc(C(=O)O)c2)cc1`, the IC50 result is “inactive”.

Take `Oc1ccc(-c2n[nH]c(=S)n2-c2ccc3c(c2)OCCO3)c(O)c1`: the IC50 was > 55.7 µM (inactive).

As for `Cc1ccc2c(C)nc(Nc3nc(CSc4nc5ccccc5[nH]4)cc(=O)[nH]3)nc2c1`, the IC50 was > 55.7 µM (inactive).

As to `CCCCCCCc1ccc(-c2ccc(O)cc2)nc1`, the IC50 was > 55.7 µM (inactive).

In the case of `CCC(C)(C)c1ccc(OCCCC[n+]2cccc(C)c2)c(C(C)(C)CC)c1`, the IC50 is > 55.7 µM (inactive).

`COc1ccc(C(=O)Nc2ccc3oc(Cc4ccc(Cl)cc4)nc3c2)cc1OC`: the IC50 is > 55.7 µM (inactive).

As for `Cc1csc(NC(=O)c2cc3c(s2)CCCC3)n1`, the IC50 entry was “inactive”.

Turning to `CCOC(=O)c1ccc(NC(=O)c2ccc(CN3CCOCC3)cc2)cc1`, the IC50 is > 55.7 µM (inactive).

As for `COc1cc(OC)cc(C(=O)Nc2nnc(NC(=S)Nc3ccccc3)s2)c1`, the IC50 was > 55.7 µM (inactive).

For `Nc1c(C(=O)NC2CCCCC2)nsc1C(=O)OCC(=O)NC1CCCCC1`, the IC50 was > 55.7 µM (inactive).

For the compound `Cc1ccc(N2C(=O)c3ccccc3C2O)nc1` (centres undefined), the IC50 result was “inactive”.

As to `O=C(Nc1nc(-c2ccc(Cl)s2)cs1)c1ccncc1`, the IC50 is > 55.7 µM (inactive).

Take `O=C1CCCN1c1ccc(S(=O)(=O)N2CCC(c3ccccc3)CC2)cc1`: the IC50 was > 55.7 µM (inactive).

As to `Cc1nc2sccn2c1-c1csc(NCc2ccccc2)n1`, the IC50 was > 55.7 µM (inactive).

In the case of `O=C(NC1CC1)c1cc2c(s1)-c1ccccc1OC2`, the IC50 was > 55.7 µM (inactive).

As to `O=C(CSc1ccc2ccccc2c1)Nc1ccncc1`, the IC50 was > 55.7 µM (inactive).

With `CC(=O)N1CCc2cc(S(=O)(=O)NC3CCCc4ccccc43)ccc21` (centres undefined), the IC50 was > 55.7 µM (inactive).

`CCCOc1ccc(CSc2nc3ccccc3[nH]2)cc1`: the IC50 was > 55.7 µM (inactive).

Regarding `COc1ccc(C)cc1-n1nnnc1SCn1nnc2ccccc2c1=O`, the IC50 is > 55.7 µM (inactive).

For `CC(=O)Nc1ccc(-c2csc(Nc3ccc(Cl)cn3)n2)cc1`, the IC50 was > 55.7 µM (inactive).

Take `Cc1cccc(N2CCN(C(=O)CSCc3c(C)noc3C)CC2)c1C`: the IC50 is > 55.7 µM (inactive).

For the compound `COC(=O)c1cccc(NC(=O)CSc2nc3cccnc3n2C)c1`, the IC50 was > 55.7 µM (inactive).
